The record followed here is patent publication US20120020915A1, “Compounds and Methods for Treating Cancer and Diseases of the Central Nervous System” (QUEENS UNIVERSITY AT KINGSTON, priority 2007, published 2012).

Experiment [1] addresses T1, heme oxygenase activity in hHO-1-transfected astrocytes (Homo sapiens, UniProt P09601).
T1 construct: containing the entire protein-coding region (866 bp) of the human HO-1 gene; expressed in transfected cells; host or cells: primary rat astrocytes (also rat C6 glioma and human pancreatic tumor cells), transient transfection with Lipofectamine 2000
T1 sequence (P09601 1-288): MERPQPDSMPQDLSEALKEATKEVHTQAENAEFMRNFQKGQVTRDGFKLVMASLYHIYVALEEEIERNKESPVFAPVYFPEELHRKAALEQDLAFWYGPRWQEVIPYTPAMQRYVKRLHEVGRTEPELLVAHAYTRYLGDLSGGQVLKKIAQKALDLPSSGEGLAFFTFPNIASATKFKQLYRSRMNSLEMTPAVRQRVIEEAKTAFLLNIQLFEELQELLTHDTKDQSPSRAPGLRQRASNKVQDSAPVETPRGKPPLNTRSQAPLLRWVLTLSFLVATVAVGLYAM
As to the kind of experiment: In vitro HO enzyme activity (bilirubin formation) in hHO-1 transfected cells. The class given is cell-based. As to conditions: 6.5 μM, 18 h; hydrochloride. How it is done:
(§1) Upon reaching >90% confluence, 1×10^6 cells were transiently transfected with 4.0 μg of plasmid DNA-Lipofectamine 2000 complex using Lipofectamine 2000 method according to manufacturer instructions (Invitrogen). […] 12 μg of plasmid DNA and 16 μl of Lipofectamine 2000 reagent were diluted in 1.5 mL opti-MEM I reduced serum medium and incubated for 5 minutes at room temperature with gentle mixing. The two solutions were combined, incubated at room temperature for 20 minutes to promote formation of DNA-lipid complexes and administered to the cells. 2 mL opti-MEM I reduced serum medium was added to the flasks to ensure coverage of the monolayer by the transfection mixture. Following incubation for 6 hours at 37° C., the transfection mixture was replaced with 10 mL of complete media without antibiotics.
Cytosol extracts were prepared for HO activity measurement by the method of Ryter (Ryter, Kvam, Tyrrell 2000). […] Protein concentration of supernatant was measured with Bradford method. […] HO activity was calculated as nanomoles bilirubin per miligram protein per min, assuming an extinction coefficient of 40/mM/cm in chloroform (see FIG. 8).

The subject of experiment [2] is hHO-1 transfected primary rat astroglial cultures. Nature of the experiment: Protein carbonyl assay (ELISA) in hHO-1 transfected rat astroglia, whole-cell and mitochondrial fractions. As to conditions: whole cell and mitochondrial compartments; for oxidative protein damage (protein carbonyls) accruing from hHO-1 transfection: 6.5 μM; for dose dependence of attenuation of oxidative protein damage: transiently transfected rat astroglia, hydrochloride. The class given is cell-based. The method, then: Cells were grown in Ham's F12 and high glucose DMEM (50:50 v/v) supplemented with 10 mM HEPES, 5% heat-inactivated horse serum, 5% heat-inactivated fetal bovine serum, and penicillin-streptomycin (50 U/mL and 50 μg/mL, respectively).
as §1
The cells were sonicated (Sonics & Materials, Danbury, Conn.) at a power level of 50 for 3×20 s in a cooled water bath. […] Whole-cell and mitochondrial preparations were assayed for protein carbonyls as described below.
Protein carbonyls were reacted with 2,4-dinitrophenylhydrazine (DNP) and the hydrazone adducts were detected with anti-DNP antisera. Quantification was achieved by comparison with oxidized BSA standards. Oxidized (carbonylated) BSA was prepared by reacting natural BSA (at 50 mg/mL in PBS) with hypochlorous acid (5 mM) for 1 h at 37° C., followed by overnight dialysis against PBS at 4° C. […] The pellet was resuspended in 2 mL of same buffer, sonicated on ice 2×15 s at 20 W and centrifuged for 20 min at 4° C. at 1,303×g. Protein concentration of supernatant was measured with the RC DC protein assay based on the Lowry protocol (Bio-Rad Laboratories, Hercules, Calif.). All samples were adjusted to 4.0 mg protein/mL. […] Five microliters aliquots of each reaction mixture were mixed with 1 mL PBS and 200 μL replicates were added per well to 96-well immunoplates and incubated overnight at 4° C. After washing with PBS, nonspecific binding sites were blocked with 0.1% Tween 20 in PBS. […] A 6-point standard curve of reduced and oxidized BSA was generated for each plate analyzed. Specific absorbance for each sample was calculated by subtracting basal absorbance of the DNP reagent from the total absorbance.
For orientation: ELISA stands for enzyme-linked immunosorbent assay.

The next experiment relates to flag-tagged HO-1 protein. Nature of the experiment: Western blot of flag-tagged HO-1 protein in transfected cells. In kind it is cell-based, human. Particulars: 6.5 μM, transiently transfected cells. The method, then:
Cells were rinsed twice with cold PBS (pH 7.4) and scraped in iced lysis buffer consisting of 1% Nonidet P-40, 50 mM Tris.HCl (pH 7.4), 30 mM NaCl, 25 mM β-glycerophosphate, 10 mM EDTA, 10 mM EGTA, 1 mM MgCl2, and protease inhibitors (10 mM sodium fluoride, 50 μg/mL AEBBSF, 5 μg/mL leupeptin, 5 μg/mL pepstatin, 5 μg/mL aprotinin). Supernatants were obtained by centrifugation at 15,000 rpm for 15 min at 4° C. Protein contents were determined using the Bradford method. Twenty μg aliquots plus 6×SDS-PAGE loading buffer (300 mM Tris.HCl pH 6.8, 600 mM DTT, 12% SDS, 0.6% bromophenol blue, 60% glycerol) were subjected to 10% sodium dodecyl sulfate-polyacrylamide gel electrophoresis and transferred to the polyvinylidene fluoride membranes. Nonspecific binding was blocked by incubation in Tris buffer saline (pH 7.4) containing 3% nonfat milk and 0.1% Tween 20 for 1 h at room temperature. Blots were probed with mouse anti-FLAG monoclonal antibody (1:200 diluted) and anti-β-actin monoclonal antibody (1:500 diluted). The secondary antibody consisted of horseradish peroxidase-conjugated goat anti-mouse antibody (1:4000 dilution). Protein bands were visualized by enhanced chemiluminescence using ECL western blotting reagents.
Background: Immunoblotting shows a protein as a band on a membrane.

SMILES strings stand for the structures. “Also recorded” adds a separate entry of the source.

Regarding `Brc1ccc(CCC2(Cn3ccnc3)OCCO2)cc1.Cl` [QC-56, 1-((2-(2-(4-Bromophenyl)ethyl)-1,3-dioxolan-2-yl)methyl)-1H-imidazole hydrochloride], in experiment [1], the “heme oxygenase activity in hHO-1 transfected cells” value was “suppressed to levels akin to those of non-transfected and sham-transfected controls; also recorded: significantly attenuated heme oxygenase activity; also recorded: significantly decreased the activity of heme oxygenase-1”. Further, in experiment [2], the “oxidative protein damage (protein carbonyls) accruing from hHO-1 transfection” value is “significantly attenuated oxidative protein damage” and the “dose dependence of attenuation of oxidative protein damage” value is on record as “significant dose dependant attenuations of oxidative protein damage; also recorded: in a dose dependent manner significantly decreased the amount of oxidative damage; also recorded: significant dose-dependant attenuations of oxidative protein damage”. Also, the “expression level of flag-tagged HO-1 protein” value in the experiment with flag-tagged HO-1 protein is given as “without affecting the expression level”.
On to `Cl.FC[C@@H]1CO[C@@](CCc2ccc(Cl)cc2)(Cn2ccnc2)O1` [QC-47, (2R,4S)-1-{2-[2-(4-Chlorophenyl)ethyl]-4-fluoromethyl-[1,3]dioxolan-2-ylmethyl}-1H-imidazole hydrochloride], for which the “heme oxygenase activity in hHO-1 transfected cells” value in experiment [1] was “suppressed to levels akin to those of non-transfected and sham-transfected controls; also recorded: significantly attenuated heme oxygenase activity; also recorded: significantly decreased the activity of heme oxygenase-1”. Also, in experiment [2], the “oxidative protein damage (protein carbonyls) accruing from hHO-1 transfection” value was “significantly attenuated oxidative protein damage” and the “dose dependence of attenuation of oxidative protein damage” value was “significant dose dependant attenuations of oxidative protein damage; also recorded: in a dose dependent manner significantly decreased the amount of oxidative damage”. Also, the “expression level of flag-tagged HO-1 protein” value with flag-tagged HO-1 protein was “without affecting the expression level”.
